Experiments:
[1] = target: T1, H3 receptor (Rattus norvegicus, UniProt Q9QYN8); test: inhibition of liberation and synthesis of endogenous histamine from depolarized brain sections (H3 agonism); assay type: cell-based; settings: for potency relative to histamine (times more powerful): H3 agonist
T1 construct: liberation and synthesis of endogenous histamine from depolarized brain sections; from tissue; host or cells: brain sections (slices)

[2] = tested on: secretion of gastric acid which is stimulated by histamine; settings: opposes action of histamine; Ganellin; cited from earlier work
[3] = tested on: histamine synthesis in the brain of rats; test: inhibition of histamine synthesis in vivo (brain, peripheral organs)
[4] = tested on: histamine H2 receptor; settings: Sterk et al.; cited from earlier work
[5] = tested on: histamine H3 receptor; settings: EP-A-0 420 396; cited from earlier work

T1 sequence (Q9QYN8 whole entry): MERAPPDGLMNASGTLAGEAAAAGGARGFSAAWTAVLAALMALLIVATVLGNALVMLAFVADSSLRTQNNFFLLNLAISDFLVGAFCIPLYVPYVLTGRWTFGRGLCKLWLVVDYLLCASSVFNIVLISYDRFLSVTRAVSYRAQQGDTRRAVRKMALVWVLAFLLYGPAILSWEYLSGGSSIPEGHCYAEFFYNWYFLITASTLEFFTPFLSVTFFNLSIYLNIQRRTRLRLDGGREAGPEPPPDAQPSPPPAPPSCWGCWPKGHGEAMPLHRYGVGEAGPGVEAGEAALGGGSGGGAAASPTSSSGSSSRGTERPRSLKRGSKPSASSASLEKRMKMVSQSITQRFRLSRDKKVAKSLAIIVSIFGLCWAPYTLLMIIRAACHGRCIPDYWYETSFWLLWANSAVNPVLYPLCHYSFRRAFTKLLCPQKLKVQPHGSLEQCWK

SMILES	type of agonism on the H3 receptor [1]	potency relative to histamine (times more powerful) [1]	concentration for H3 relative to that necessary for engagement of the H2 receptor (times lower) ([1]; H3 versus H2)	concentration stimulating the H3 receptor ([1]; depolarized brain sections)	50% inhibiting dose on rat gastric secretion [2]	crossing of the blood-brain barrier ([3]; inferred from brain effect at oral 3 mg/kg in rats)	inhibition of histamine synthesis in peripheral organs such as the lungs ([3]; peripheral organs, lungs)	inhibition of histamine synthesis in the brain ([3]; rats, oral dose of 3 mg/kg)	concentration stimulating the H2 receptor [4]	partial agonist efficacy at histamine H2 receptor [4]	H3 agonist potency and selectivity in words [5]	EC50 ([1]; read-out: EC50 as H3 agonist)	H3 agonist activity in vivo ([3]; in vivo test not specified)
N=C(N)SCCc1cnc[nH]1 [Compound I, S-[2-(4(5)-imidazolyl)-ethyl] isothiourea]	full histamine agonist	62 times	about 100,000 times	about 1 nanomolar	about 200 μmoles/kg	adequately crosses the blood-brain barrier	inhibits at a very low dose	maximum inhibition	about 0.1 mM	50%	highly potent selective histamine H3 -agonists		
N=C(N)CCCc1c[nH]cn1 [Compound III, 4-(4(5)-imidazolyl) butyramidine]											highly potent selective histamine H3 -agonists		
CN=C(N)SCCc1c[nH]cn1 [Compound II]	full and comparatively powerful	about 6 times										10 nM	active in vivo
